Assay results from paper PMC8776094, “Reactive Oxygen Species Production Is Responsible for Antineoplastic Activity of Osmium, Ruthenium, Iridium and Rhodium Half-Sandwich Type Complexes with Bidentate Glycosyl Heterocyclic Ligands in Various Cancer Cell Models” (International Journal of Molecular Sciences, 2022).

Legend:
Assay type in all cases: cell-based
[1] = tested on: ID8 ovarian cancer cell line; assay: SRB assay, 48 h, cytostasis, ID8; conditions: for IC50 / ID8 Max. Inh. (%): SRB assay, 48 h; for ID8 Max. Inh. (%): ND = not detected
Experimental: (§1) The compounds were tested between 0.001694 and 33.3333 µM, using a 4-hour-long MTT test to assess rapid toxicity and a 48-hour-long SRB assay to assess the long-term effects of the inhibition of proliferation (cytostasis). The MTT assay assesses the activity of mitochondrial complex I and detects rapid, direct toxicity, as well as indicating apoptosis and necrosis. The SRB assay measures the total protein content that is proportional to cell numbers; therefore, the assay can detect changes in cell numbers and can thus be used as a readout for cell proliferation. The SRB assay was performed after 48 h of treatment (with the exception of L428 cells, which were tested for 96 h due to their slower proliferation rate). In this setting, the SRB assay informs us of long-term changes to cell proliferation. We assessed the maximal inhibition within that concentration range, and descriptive statistics were performed. We performed a one-way ANOVA, followed by the Kruskal–Wallis test, regardless of the normal or non-normal distribution of the data. Due to the large number of significance values, the results of the significance calculations are provided in an Excel spreadsheet at https://figshare.com/s/28d14597d5041f08eb08 (accessed on 6 January 2022), among other primary data of the study. Where possible, nonlinear regression was performed on the curves to determine the IC50 values ((inhibitor) vs. response—variable slope (four parameters) method with Graphpad v8.0.1). […] In Table 5, we added the IC50 values that we determined for a set of 4 active ruthenium half-sandwich complexes we identified previously, to be used in subsequent structure-activity relationship (SAR) analyses.
ID8 cells were cultured in a high-glucose DMEM (4.5 g/L glucose) medium, supplemented with 4% fetal calf serum, 2 mM glutamine, 1% penicillin-streptomycin, and 1% ITS supplement (I3146).
(§2) The assay was performed similarly to the method used in [73]. Cells were seeded in 96-well plates the day before the assay. Cells were treated with the compounds for 48 h, with the exception of L428, where 96 h of treatment was applied. Cells were fixed with 10% trichloroacetic acid (TCA). Fixed cells were washed in distilled water 3 times, followed by staining with SRB (0.4 m/V% dissolved in 1% acetic acid) for 10 min. The stained cells were washed in 1% acetic acid 5 times; the acetic acid was removed, and the cells were left to dry. Protein-bound SRB was released by adding 100 µL 10 mM Tris base. Plates were measured in a plate photometer (Thermo Scientific Multiscan GO spectrophotometer, Waltham, MA, USA) at 540 nm. On each plate, wells were designed to contain untreated cells. In calculations, the readings for these wells were considered as 1 and all readings were expressed relative to these values.
Statistical analysis was performed using the 8.0.1 version of Graphpad Prism. Values were tested for normal distribution, using the d’Agostino and Pearson normality test. When necessary, values were log-normalized or were normalized using the Box-Cox normalization method or using a two-step transformation, as indicated in the figure captions. Nonlinear regression was performed using the built-in “[Inhibitor] vs. Response—Variable slope (four parameters), least-square fit” utility of Graphpad, yielding the IC50 and Hill slope values.

[2] = tested on: L428, a Hodgkin's lymphoma cell line; assay: Cytostasis assay, 96 h, L428; conditions: for cytostatic activity on L428 cells (in words): 96 h; for L428 Max. Inh. (%): 96 h treatment, ND = not detected
Experimental: as §1
We turned next to assessing whether the cytostatic activity of Os-3, Os-4, Os-5, Os-6 and Ir-6 complexes is specific for ovarian cancer cell lines or if they may be active on other cell lines. To that end, we tested the complexes on another carcinoma cell line (Capan2, a pancreatic adenocarcinoma cell line), on a sarcoma cell line (Saos, an osteosarcoma cell line) and on a lymphoma cell line (L428, a Hodgkin’s lymphoma cell line).
L428 cells were maintained in RPMI 1640 medium, supplemented with 10% fetal calf serum, 2 mM glutamine, and 1% penicillin-streptomycin.
as §2
Here, 1.5 × 10^3 Capan2, 3 × 10^3 Saos cells and 10^4 L428 cells were plated onto 96-well plates. Capan2 and Saos cells were treated with the compounds in the concentrations indicated for 48 h for an SRB assay. L428 cells were treated with the compounds in the concentrations indicated for 96 h, then cells were counted using conventional microscopy and a Burker chamber. Data are represented as average ± SD, from three biological replicates; individual assays were performed in duplicate. Values were normalized for vehicle-treated cells; the absorbance for vehicle-treated cells is equal to 1. A one-way ANOVA, followed by a Kruskal–Wallis test, was performed individually for each compound. […]

A2780 cells = assay: Annexin V-propidium iodide double staining, cell death, flow cytometry; conditions: 2 h treatment; Os-3 2.68 µM, Os-4 3.25 µM, Os-5 2.84 µM, Os-6 0.70 µM, Ir-6 1.63 µM
Experimental: We selected the Os-3, Os-4, Os-5, Os-6 and Ir-6 complexes for further study, based on their strong cytostatic activity on the ovarian cancer cell lines, but there was a lack of activity on primary fibroblasts. […] Similar to previous approaches, as propidium iodide or Annexin V positivity is an early feature of cell death, we treated cells for 2 h and then performed double-staining with Annexin V—propidium iodide.
The proportion of dead cells was assessed using the Annexin V–propidium iodide assay and was measured using flow cytometry with a BD FacsCalibur (BD Biosciences, Franklin Lakes, NJ, USA) instrument and the FITC Annexin V/Dead Cell Apoptosis kit (Life Technologies, Eugene, OR, USA), according to the manufacturer’s instructions, in a process similar to that in [43]. Quadrants were set, based on the FITC and PI values observed for the vehicle-treated cells.
Here, 1 × 10^6 A2780 cells were plated in 6-well plates and were treated with the corresponding complexes (Os-3 at 2.68 µM, Os-4 at 3.25 µM, Os-5 at 2.84 µM, Os-6 at 0.70 µM, Ir-6 at 1.63 µM,) and 300 µM hydrogen peroxide for 2 h. Cells were then stained with Annexin V and propidium iodide (PI), then, cells were subjected to flow cytometry as described in the Materials and Methods section. The percentage of cells in the quadrants was plotted. Data are represented as average ± SD, from three biological replicates; individual assays were performed in duplicate. Normality was tested, on all datasets. A two-step transformation was used to achieve normal distribution. Statistical significance was determined using a two-way ANOVA test; all measurement points were compared with each other. ** and *** indicate statistically significant differences between vehicle-treated (control) and treated cells ([…] or 300 µM H2O2) corresponding to the same quadrant (e.g., vehicle-treated double-negative cells vs. Os-3-treated double-negative cells) at p < 0.01 and p < 0.001, respectively.

Structure (SMILES)	IC50 [1] [nM]	ID8 Max. Inh. (%) [1] [%]	cytostatic activity on L428 cells (in words) [2]	L428 Max. Inh. (%) [2] [%]	induction of cell death (Annexin V / propidium iodide positivity) (A2780 cells)	cytostatic activity on ID8 cells, SRB assay (in words) ([1]; 48 h treatment)
Cc1ccc(C(C)C)cc1.F[P-](F)(F)(F)(F)F.O=C(OC1COC(c2nnc(-c3ccccn3)o2)C(OC(=O)c2ccccc2)C1OC(=O)c1ccccc1)c1ccccc1.[Cl][Os+] (mixture of isomers) [Os-5]	1960	100	active on all cell lines	100	None of the complexes induced cell death	
Cc1ccc(C(C)C)cc1.F[P-](F)(F)(F)(F)F.O=C(OCC1OC(n2cc(-c3ccccn3)nn2)C(OC(=O)c2ccccc2)C(OC(=O)c2ccccc2)C1OC(=O)c1ccccc1)c1ccccc1.[Cl][Os+] (mixture of isomers) [Os-6]	1960	100	active on all cell lines	100	None of the complexes induced cell death	
Cc1ccc(C(C)C)cc1.F[P-](F)(F)(F)(F)F.O=C(OCC1OC(c2nnc(-c3ccccn3)o2)C(OC(=O)c2ccccc2)C(OC(=O)c2ccccc2)C1OC(=O)c1ccccc1)c1ccccc1.[Cl][Os+] (mixture of isomers) [Os-3]	5940	100	active on all cell lines	100	None of the complexes induced cell death	
Cc1c(C)c(C)[c-](C)c1C.F[P-](F)(F)(F)(F)F.O=C(OCC1OC(n2cc(-c3ccccn3)nn2)C(OC(=O)c2ccccc2)C(OC(=O)c2ccccc2)C1OC(=O)c1ccccc1)c1ccccc1.[Cl][Ir+2] (mixture of isomers) [Ir-6]	980	100	active on all cell lines	100	None of the complexes induced cell death	pronounced cytostatic activity
Cc1ccc(C(C)C)cc1.F[P-](F)(F)(F)(F)F.O=C(OCC1OC(c2nnc(-c3ccccn3)o2)C(OC(=O)c2ccccc2)C(OC(=O)c2ccccc2)C1OC(=O)c1ccccc1)c1ccccc1.[Cl][Os+] (mixture of isomers) [Os-4]	6950	100	active on all cell lines	100	None of the complexes induced cell death	
